Source: PMC7809625 (Cell Reports, 2021)

Key:
VGLUT1 [1] = target: T1, VGLUT1 (Rattus norvegicus, UniProt Q62634); assay: inhibition of Na+-dependent Pi uptake in COS7-VGLUT1 cells; format: cell-based
T1 sequence (Q62634 1-560): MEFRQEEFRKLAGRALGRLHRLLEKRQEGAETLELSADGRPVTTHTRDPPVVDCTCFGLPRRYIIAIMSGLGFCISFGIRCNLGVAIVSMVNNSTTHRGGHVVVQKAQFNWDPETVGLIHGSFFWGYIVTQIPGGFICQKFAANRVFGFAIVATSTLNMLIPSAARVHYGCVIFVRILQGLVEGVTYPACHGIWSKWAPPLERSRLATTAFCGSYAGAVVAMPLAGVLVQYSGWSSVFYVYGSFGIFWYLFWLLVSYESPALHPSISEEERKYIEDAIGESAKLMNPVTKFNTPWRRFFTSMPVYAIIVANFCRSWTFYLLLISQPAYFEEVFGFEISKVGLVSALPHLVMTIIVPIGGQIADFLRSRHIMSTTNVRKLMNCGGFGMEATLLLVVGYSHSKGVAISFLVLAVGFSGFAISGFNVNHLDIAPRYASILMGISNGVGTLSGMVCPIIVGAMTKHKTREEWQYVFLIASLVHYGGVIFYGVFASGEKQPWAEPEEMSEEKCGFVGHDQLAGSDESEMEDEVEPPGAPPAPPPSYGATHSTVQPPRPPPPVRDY

VGLUT1 [2] = target: T1, VGLUT1; assay: inhibition of Pi uptake in COS7-VGLUT1 cells at […]; format: cell-based

## N[C@@H](CCC(=O)O)C(=O)O [glutamate]
VGLUT1 [1]
  Ki: 1370 µM

## O=C1OC2(c3cc(I)c(O)c(I)c3Oc3c2cc(I)c(O)c3I)c2c(Cl)c(Cl)c(Cl)c(Cl)c21 [RB, Rose bengal]
VGLUT1 [2]
  inhibition of Pi uptake in COS7-VGLUT1 cells at 10 uM: The absence of additive effect of NB9 and RB emphasizes the specificity of both inhibitors toward VGLUT1.
